Data reported in patent publication US9491962B2, “Use of chicoric acid and derivatives for regulating skin pigmentation” (Nestec S.A., priority 2010, dated 2016).

Columns and labels:
[1] = tested on: B16 murine melanocytes; assay: Production of melanin by B16 murine melanocyte cell line; assay type: cell-based; conditions: for melanin production (result in words): B16 melanocytes, 72 hours, Kojic acid at 400 μg/mL
Description: In order to evaluate the potential beneficial effect of ingredients towards skin de- or pro-pigmentation we used 2D culture of murine melanocytes (B16) and we performed 2 tests: 1-assessment of melanin production and 2-assessment of tyrosinase production. B16 cells were cultured in DMEM 1 g/L glucose without phenol red supplemented with 10% foetal calf serum, in a humidified chamber at 37° C. and containing 5% CO2. Cells were incubated with the selected ingredients or the test references (Kojic acid at 400 μg/mL) for 72 hours, in the presence or absence of NDP-MSH an analog of MSH. The total quantity of melanin (extracellular and intracellular) was evaluated by measurement of the optical density at 405 nm of each sample against melanin standards in presence or in absence of NDP-MSH.

[2] = tested on: HDF; assay: Highest non cytotoxic concentration on HDF; assay type: cell-based; conditions: mM
Text: (§1) We have tested two chicory extracts MS-55 (concentré MS-55 LEROUX) and MS-70 (pâte MS-70 LEROUX) and Chicoric acid.

[3] = tested on: HPEK; assay: Highest non cytotoxic concentration on HPEK; assay type: cell-based, human; conditions: mM
Description: as §1
The potential beneficial effect of the Extracts of Example 1 towards skin barrier function and skin hydration was evaluated by using 2D culture of human primary epidermal keratinocytes and we assessed the synthesis of filaggrin

[4] = tested on: filaggrin; assay: Synthesis of filaggrin by human epidermal keratinocytes (immunolabeling); assay type: cell-based; conditions: human primary epidermal keratinocytes, 144 hours
Description: The potential beneficial effect of the Extracts of Example 1 towards skin barrier function and skin hydration was evaluated by using 2D culture of human primary epidermal keratinocytes and we assessed the synthesis of filaggrin Human epidermal keratinocytes were cultured in control keratinocytes-SFM medium, in a humidified chamber at 37° C. and containing 5% CO2. Cells were incubated with the selected ingredients or the test references (CaCl2 at 1.5 mM) for 144 hours. The production of filaggrin by was evaluated by immunolabeling.

| Compound | melanin production (result in words) [1] | Highest non cytotoxic conc. on HDF [2] [mM] | Highest non cytotoxic conc. on HPEK [3] [mM] | decrease of melanin production ([1]; B16 melanocytes treated for 72 hours, percentage relative to the control) [%] | filaggrin synthesis (result in words) [4] |
| --- | --- | --- | --- | --- | --- |
| O=c1cc(CO)occ1O [Kojic acid, reference compound] | decrease in melanin production | – | – | – | – |
| O=C(/C=C/c1ccc(O)c(O)c1)O[C@@H](C(=O)O)[C@@H](OC(=O)/C=C/c1ccc(O)c(O)c1)C(=O)O [Chicoric acid] | decrease in vitro the synthesis of melanin | 0.2 | 0.2 | 90 | increase of filaggrin |
